In ChEMBL document CHEMBL4184110 (Bioorg Med Chem Lett, 2018):

Target: T1, Luciferin 4-monooxygenase (Photuris pensylvanica, UniProt Q27757)
T1 sequence (Q27757 whole entry): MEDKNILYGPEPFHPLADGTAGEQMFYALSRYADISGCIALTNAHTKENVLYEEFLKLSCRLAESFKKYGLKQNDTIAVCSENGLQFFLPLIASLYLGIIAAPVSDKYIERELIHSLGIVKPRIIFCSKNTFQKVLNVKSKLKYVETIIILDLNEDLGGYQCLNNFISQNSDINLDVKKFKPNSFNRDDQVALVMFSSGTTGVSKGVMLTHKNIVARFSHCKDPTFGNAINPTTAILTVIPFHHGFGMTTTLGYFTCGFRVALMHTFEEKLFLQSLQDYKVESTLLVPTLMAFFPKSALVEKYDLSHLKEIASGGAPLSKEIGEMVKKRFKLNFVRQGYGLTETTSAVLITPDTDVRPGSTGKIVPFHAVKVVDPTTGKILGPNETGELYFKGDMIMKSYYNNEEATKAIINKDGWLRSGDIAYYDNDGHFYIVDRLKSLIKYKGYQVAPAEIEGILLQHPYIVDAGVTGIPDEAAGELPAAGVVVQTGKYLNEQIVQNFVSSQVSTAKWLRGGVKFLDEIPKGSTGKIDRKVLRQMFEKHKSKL
Experiment: Inhibition of Photuris pennsylvanica luciferase after 45 mins by CellTiter-Glo based luminescence assay
Conditions: 0.75 h; call rule not given here

SMILES	inhibition (INH)
COC(=O)c1ccc(OCc2oc(-c3cccc(OC)c3)nc2C)cc1	Not Active
COC(=O)Cc1ccc(OCc2oc(-c3cccc(OC)c3)nc2C)cc1	Not Active
